The numbers were not newly measured in patent US10213490B2, “Compositions for providing agents that degrade in water” (VIRUN, INC., priority 2015, dated 2019), which cites them from elsewhere.

Regarding `N[C@@H](CCC(=O)N[C@@H](CS)C(=O)NCC(=O)O)C(=O)O` [glutathione], under “stored in water at pH 2 and 7, after 7 days”, the glutathione remaining entry is “approximately 65%”. Further, the glutathione degraded (stored in water, pH 3 to 6, 7 days) is recorded as 20%.
